# Experimental data: patent US12202835B2, “Substituted aromatic ring-linked dioxinoquinazolines and dioxinoquinolines as kinase inhibitors” (BEIJING SCITECH-MQ PHARMACEUTICALS LIMITED, priority 2018, dated 2025)
# Legend:
# Format in all cases: biochemical
# MER kinase = MER kinase (Homo sapiens (Human), UniProt Q12866); assay: Assay of small molecular compounds for inhibiting the activity of MER kinase (LANCE TR-FRET)
# Outline: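 LANCE TR-FRET readout of ULight-poly GT phosphorylation by MER kinase; compound final range 0.042-2500 nM, 3-fold steps, 5 min enzyme preincubation. Reaction 60 min at room temperature in the dark with substrate/ATP (4× at 200 nM/20 μM), 1% DMSO, then stopped and developed 60 min; IC50 by curve fit.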
# VEGFR-2 kinase = VEGFR-2 kinase (Homo sapiens (Human), UniProt P35968); assay: Assay of small molecular compounds for inhibiting the activity of VEGFR-2 kinase (LANCE TR-FRET); conditions: read-out: VEGFR2 IC50
# Outline: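 LANCE TR-FRET with human VEGFR-2 (2× stock 0.5 nM) preincubated 30 min with compound (final 2500 to 0.042 nM, 11-point 3-fold), then ULight-JAK-1 (Tyr1023) peptide/ATP added (4× stocks 200 nM/40 μM). Reaction 60 min room temperature, 4% DMSO; IC50 from inhibition-rate curve.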
# TRKA kinase = TRKA kinase (Homo sapiens (Human), UniProt P04629); assay: Assay of small molecular compounds for inhibiting the activity of TRKA kinase (LANCE TR-FRET)
# Outline: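 TRKA (supplied as 2 nM 2× solution) was pre-reacted with compounds for 5 min at room temperature before a 4× ULight-TK peptide/ATP mix (400 nM/40 μM) started the 60-min dark reaction at 1% DMSO. After stop and 60-min detection, TR-FRET was read.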
# Sequence of MER kinase (Q12866 21-999): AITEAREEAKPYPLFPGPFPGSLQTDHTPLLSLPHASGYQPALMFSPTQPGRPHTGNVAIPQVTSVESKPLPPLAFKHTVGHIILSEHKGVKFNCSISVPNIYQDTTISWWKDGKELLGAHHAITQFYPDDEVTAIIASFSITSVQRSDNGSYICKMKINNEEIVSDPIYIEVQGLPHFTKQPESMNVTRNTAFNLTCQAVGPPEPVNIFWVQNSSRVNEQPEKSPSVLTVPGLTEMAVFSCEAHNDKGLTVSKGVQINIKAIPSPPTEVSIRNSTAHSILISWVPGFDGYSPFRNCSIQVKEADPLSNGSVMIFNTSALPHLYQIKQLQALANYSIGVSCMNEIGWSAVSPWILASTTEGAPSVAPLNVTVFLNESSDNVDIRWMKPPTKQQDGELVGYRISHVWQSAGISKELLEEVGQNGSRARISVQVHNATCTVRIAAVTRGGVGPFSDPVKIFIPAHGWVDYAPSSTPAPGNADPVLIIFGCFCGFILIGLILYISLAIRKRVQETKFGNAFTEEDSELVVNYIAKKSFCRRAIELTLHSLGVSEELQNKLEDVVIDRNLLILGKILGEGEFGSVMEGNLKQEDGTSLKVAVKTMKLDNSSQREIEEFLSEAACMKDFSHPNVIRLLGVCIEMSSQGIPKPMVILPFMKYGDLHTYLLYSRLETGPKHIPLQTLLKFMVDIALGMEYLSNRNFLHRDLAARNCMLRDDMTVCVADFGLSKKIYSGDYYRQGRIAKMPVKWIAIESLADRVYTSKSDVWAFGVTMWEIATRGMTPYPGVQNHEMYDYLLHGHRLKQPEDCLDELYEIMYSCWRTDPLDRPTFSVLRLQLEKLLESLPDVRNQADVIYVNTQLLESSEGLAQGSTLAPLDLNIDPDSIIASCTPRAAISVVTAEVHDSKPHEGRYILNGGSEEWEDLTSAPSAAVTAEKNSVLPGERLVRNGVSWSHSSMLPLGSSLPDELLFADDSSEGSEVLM
# Sequence of VEGFR-2 kinase (P35968 20-1356): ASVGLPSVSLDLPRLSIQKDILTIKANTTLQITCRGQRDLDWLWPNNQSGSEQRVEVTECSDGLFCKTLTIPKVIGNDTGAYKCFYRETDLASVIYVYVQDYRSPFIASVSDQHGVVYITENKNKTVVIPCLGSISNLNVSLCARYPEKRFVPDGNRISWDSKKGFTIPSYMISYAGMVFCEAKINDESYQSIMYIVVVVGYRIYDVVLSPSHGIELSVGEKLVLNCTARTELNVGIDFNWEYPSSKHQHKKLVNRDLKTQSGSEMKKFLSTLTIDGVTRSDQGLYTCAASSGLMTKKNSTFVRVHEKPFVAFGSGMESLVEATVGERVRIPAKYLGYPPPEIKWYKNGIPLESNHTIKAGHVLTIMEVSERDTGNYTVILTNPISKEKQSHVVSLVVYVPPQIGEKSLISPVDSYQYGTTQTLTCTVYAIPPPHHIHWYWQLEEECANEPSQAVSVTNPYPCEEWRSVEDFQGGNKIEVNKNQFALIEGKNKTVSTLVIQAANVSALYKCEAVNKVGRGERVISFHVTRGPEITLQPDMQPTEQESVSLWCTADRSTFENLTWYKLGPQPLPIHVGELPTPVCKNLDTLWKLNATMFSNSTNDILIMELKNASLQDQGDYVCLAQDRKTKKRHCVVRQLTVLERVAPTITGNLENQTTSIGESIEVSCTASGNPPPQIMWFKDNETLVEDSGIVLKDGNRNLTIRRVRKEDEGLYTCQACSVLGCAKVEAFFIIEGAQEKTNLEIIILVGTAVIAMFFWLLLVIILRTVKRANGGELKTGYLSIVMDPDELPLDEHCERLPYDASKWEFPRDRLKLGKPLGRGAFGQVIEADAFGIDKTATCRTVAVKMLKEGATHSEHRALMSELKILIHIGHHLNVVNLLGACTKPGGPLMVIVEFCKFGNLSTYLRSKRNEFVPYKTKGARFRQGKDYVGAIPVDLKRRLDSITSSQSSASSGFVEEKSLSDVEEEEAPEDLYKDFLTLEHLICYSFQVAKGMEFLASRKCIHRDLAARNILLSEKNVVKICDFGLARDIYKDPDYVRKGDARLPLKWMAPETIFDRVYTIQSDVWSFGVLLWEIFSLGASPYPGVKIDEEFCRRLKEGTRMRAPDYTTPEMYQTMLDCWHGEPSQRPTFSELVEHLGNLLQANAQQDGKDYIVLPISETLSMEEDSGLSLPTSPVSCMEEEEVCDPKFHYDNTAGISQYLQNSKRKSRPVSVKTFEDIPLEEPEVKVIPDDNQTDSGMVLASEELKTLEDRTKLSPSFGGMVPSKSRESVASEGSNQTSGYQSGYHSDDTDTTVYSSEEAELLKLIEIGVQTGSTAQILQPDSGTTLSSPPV
# Sequence of TRKA kinase (P04629 33-796): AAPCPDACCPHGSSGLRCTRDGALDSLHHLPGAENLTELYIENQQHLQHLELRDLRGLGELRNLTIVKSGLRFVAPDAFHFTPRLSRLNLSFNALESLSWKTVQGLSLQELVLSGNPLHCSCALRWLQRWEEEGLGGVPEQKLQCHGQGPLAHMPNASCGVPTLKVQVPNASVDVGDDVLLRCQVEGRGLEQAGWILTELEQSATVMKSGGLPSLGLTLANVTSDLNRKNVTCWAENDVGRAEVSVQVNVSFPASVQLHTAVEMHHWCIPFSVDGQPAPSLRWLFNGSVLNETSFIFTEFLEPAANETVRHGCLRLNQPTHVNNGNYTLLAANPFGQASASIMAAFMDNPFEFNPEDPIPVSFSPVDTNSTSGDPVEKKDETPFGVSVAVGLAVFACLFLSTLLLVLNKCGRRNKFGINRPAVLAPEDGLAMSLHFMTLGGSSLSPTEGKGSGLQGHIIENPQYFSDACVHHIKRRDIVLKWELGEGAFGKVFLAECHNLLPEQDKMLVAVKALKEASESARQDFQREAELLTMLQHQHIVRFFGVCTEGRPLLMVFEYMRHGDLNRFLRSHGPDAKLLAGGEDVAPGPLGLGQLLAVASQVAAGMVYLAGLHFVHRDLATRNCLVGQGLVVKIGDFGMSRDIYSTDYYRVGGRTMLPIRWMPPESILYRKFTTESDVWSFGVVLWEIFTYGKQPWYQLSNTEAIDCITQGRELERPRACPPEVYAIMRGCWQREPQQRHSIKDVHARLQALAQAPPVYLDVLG
SMILES,IC50 (MER kinase) [nM],IC50 (VEGFR-2 kinase) [nM],IC50 (TRKA kinase) [nM]
"CCOc1ccn(-c2ccc(F)cc2)c(=O)c1C(=O)Nc1ccc(Oc2ccnc3cc(OC)c4c(c23)OCCO4)c(F)c1 [Example 19, N-(3-fluoro-4-((5-methoxy-2,3-dihydro-[1,4]dioxino[2,3-f]quinolin-10-yl)oxy)phenyl)-1-(4-fluorophenyl)-4-ethoxy-2-oxo-1,2-dihydropyridine-3-carboxamide]",≤ 50,≤ 50,< 50
"COc1ccn(-c2ccc(F)cc2)c(=O)c1C(=O)Nc1ccc(Oc2ccnc3cc(OCCCN4CCOCC4)c4c(c23)OCCO4)c(F)c1 [Example 21, N-(3-fluoro-4-((5-(3-morpholinopropoxy)-2,3-dihydro-[1,4]dioxino[2,3-f]quinolin-10-yl)oxy)phenyl)-1-(4-fluorophenyl)-4-methoxy-2-oxo-1,2-dihydropyridine-3-carboxamide]",≤ 50,≤ 50,< 50
"CCOc1ccn(-c2ccc(F)cc2)c(=O)c1C(=O)Nc1ccc(Oc2ccnc3cc(OCCCN4CCOCC4)c4c(c23)OCCO4)c(F)c1 [Example 22, N-(3-fluoro-4-((5-(3-morpholinopropoxy)-2,3-dihydro-[1,4]dioxino[2,3-f]quinolin-10-yl)oxy)phenyl)-1-(4-fluorophenyl)-4-ethoxy-2-oxo-1,2-dihydropyridine-3-carboxamide]",≤ 50,≤ 50,< 50
"COc1cn(-c2ccc(F)cc2C)nc1C(=O)Nc1ccc(Oc2ccnc3cc(OCCCN4CCOCC4)c4c(c23)OCCO4)c(F)c1 [Example 27, 1-(4-fluoro-2-methylphenyl)-N-(3-fluoro-4-((5-(3-morpholinopropoxy)-2,3-dihydro-[1,4]dioxino[2,3-f]quinolin-10-yl)oxy)phenyl)-4-methoxy-1H-pyrazole-3-carboxamide]",≤ 50,≤ 50,< 50
"COc1cc2ncnc(Oc3ccc(NC(=O)c4cn(C)c(=O)n(-c5ccc(F)cc5)c4=O)cc3F)c2c2c1OCCO2 [Example 29, N-(3-fluoro-4-((5-methoxy-2,3-dihydro-[1,4]dioxino[2,3-f]quinazolin-10-yl)oxy)phenyl)-3-(4-fluorophenyl)-1-methyl-2,4-dioxo-1,2,3,4-tetrahydropyrimidine-5-carboxamide]",≤ 50,500 to 5000,< 50
"Cn1cc(C(=O)Nc2ccc(Oc3ncnc4cc(OCCCN5CCOCC5)c5c(c34)OCCO5)c(F)c2)c(=O)n(-c2ccc(F)cc2)c1=O [Example 30, N-(3-fluoro-4-((5-(3-morpholinopropoxy)-2,3-dihydro-[1,4]dioxino[2,3-f]quinazolin-10-yl)oxy)phenyl)-3-(4-fluorophenyl)-1-methyl-2,4-dioxo-1,2,3,4-tetrahydropyrimidine-5-carboxamide]",≤ 50,≤ 50,< 50
"O=C(Nc1ccc(Oc2ccnc3cc(OCCCN4CCCCC4)c4c(c23)OCCO4)c(F)c1)c1cccn(-c2ccc(F)cc2)c1=O [Example 31, N-(3-fluoro-4-((5-(3-(piperidin-1-yl)propoxy)-2,3-dihydro-[1,4]dioxino[2,3-f]quinolin-10-yl)oxy)phenyl)-1-(4-fluorophenyl)-2-oxo-1,2-dihydropyridine-3-carboxamide]",≤ 50,≤ 50,< 50
"COc1ccn(-c2ccc(F)cc2)c(=O)c1C(=O)Nc1ccc(Oc2ccnc3cc(OCCCN4CCCCC4)c4c(c23)OCCO4)c(F)c1 [Example 32, N-(3-fluoro-4-((5-(3-(piperidin-1-yl)propoxy)-2,3-dihydro-[1,4]dioxino[2,3-f]quinolin-10-yl)oxy)phenyl)-1-(4-fluorophenyl)-4-methoxy-2-oxo-1,2-dihydropyridine-3-carboxamide]",≤ 50,≤ 50,< 50
"CCOc1ccn(-c2ccc(F)cc2)c(=O)c1C(=O)Nc1ccc(Oc2ccnc3cc(OCCCN4CCCCC4)c4c(c23)OCCO4)c(F)c1 [Example 33, N-(3-fluoro-4-((5-(3-(piperidin-1-yl)propoxy)-2,3-dihydro-[1,4]dioxino[2,3-f]quinolin-10-yl)oxy)phenyl)-1-(4-fluorophenyl)-4-ethoxy-2-oxo-1,2-dihydropyridine-3-carboxamide]",≤ 50,≤ 50,< 50
"COCCOc1cc2nccc(Oc3ccc(NC(=O)c4cccn(-c5ccc(F)cc5)c4=O)cc3F)c2c2c1OCCO2 [Example 34, N-(3-fluoro-4-((5-(2-methoxyethoxy)-2,3-dihydro-[1,4]dioxino[2,3-f]quinolin-10-yl)oxy)phenyl)-1-(4-fluorophenyl)-2-oxo-1,2-dihydropyridine-3-carboxamide]",≤ 50,≤ 50,< 50
"COCCOc1cc2nccc(Oc3ccc(NC(=O)c4c(OC)ccn(-c5ccc(F)cc5)c4=O)cc3F)c2c2c1OCCO2 [Example 35, N-(3-fluoro-4-((5-(2-methoxyethoxy)-2,3-dihydro-[1,4]dioxino[2,3-f]quinolin-10-yl)oxy)phenyl)-1-(4-fluorophenyl)-4-methoxy-2-oxo-1,2-dihydropyridine-3-carboxamide]",≤ 50,≤ 50,< 50
"CCOc1ccn(-c2ccc(F)cc2)c(=O)c1C(=O)Nc1ccc(Oc2ccnc3cc(OCCOC)c4c(c23)OCCO4)c(F)c1 [Example 36, N-(3-fluoro-4-((5-(2-methoxyethoxy)-2,3-dihydro-[1,4]dioxino[2,3-f]quinolin-10-yl)oxy)phenyl)-1-(4-fluorophenyl)-4-ethoxy-2-oxo-1,2-dihydropyridine-3-carboxamide]",≤ 50,≤ 50,< 50
"CCn1cc(C(=O)Nc2ccc(Oc3ccnc4cc(OC)c5c(c34)OCCO5)c(F)c2)c(=O)n(-c2ccc(F)cc2)c1=O [Example 37, N-(3-fluoro-4-((5-methoxy-2,3-dihydro-[1,4]dioxino[2,3-f]quinolin-10-yl)oxy)phenyl)-3-(4-fluorophenyl)-1-ethyl-2,4-dioxo-1,2,3,4-tetrahydropyrimidine-5-carboxamide]",≤ 50,50 to 500,< 50
"CCn1cc(C(=O)Nc2ccc(Oc3ccnc4cc(OCCCN5CCOCC5)c5c(c34)OCCO5)c(F)c2)c(=O)n(-c2ccc(F)cc2)c1=O [Example 38, N-(3-fluoro-4-((5-(3-morpholinopropoxy)-2,3-dihydro-[1,4]dioxino[2,3-f]quinolin-10-yl)oxy)phenyl)-3-(4-fluorophenyl)-1-ethyl-2,4-dioxo-1,2,3,4-tetrahydropyrimidine-5-carboxamide]",≤ 50,50 to 500,< 50
"Cn1cc(C(=O)Nc2ccc(Oc3ccnc4cc(OCCCN5CCCCC5)c5c(c34)OCCO5)c(F)c2)c(=O)n(-c2ccc(F)cc2)c1=O [Example 39, N-(3-fluoro-4-((5-(3-(piperidin-1-yl)propoxy)-2,3-dihydro-[1,4]dioxino[2,3-f]quinolin-10-yl)oxy)phenyl)-3-(4-fluorophenyl)-1-methyl-2,4-dioxo-1,2,3,4-tetrahydropyrimidine-5-carboxamide]",≤ 50,50 to 500,< 50
"CC(C)n1cc(C(=O)Nc2ccc(Oc3ccnc4cc(OCCCN5CCCCC5)c5c(c34)OCCO5)c(F)c2)c(=O)n(-c2ccc(F)cc2)c1=O [Example 40, N-(3-fluoro-4-((5-(3-(piperidin-1-yl)propoxy)-2,3-dihydro-[1,4]dioxino[2,3-f]quinolin-10-yl)oxy)phenyl)-3-(4-fluorophenyl)-1-isopropyl-2,4-dioxo-1,2,3,4-tetrahydropyrimidine-5-carboxamide]",≤ 50,50 to 500,< 50
"CCn1cc(C(=O)Nc2ccc(Oc3ccnc4cc(OCCCN5CCCCC5)c5c(c34)OCCO5)c(F)c2)c(=O)n(-c2ccc(F)cc2)c1=O [Example 41, N-(3-fluoro-4-((5-(3-(piperidin-1-yl)propoxy)-2,3-dihydro-[1,4]dioxino[2,3-f]quinolin-10-yl)oxy)phenyl)-3-(4-fluorophenyl)-1-ethyl-2,4-dioxo-1,2,3,4-tetrahydropyrimidine-5-carboxamide]",≤ 50,50 to 500,< 50
"COCCOc1cc2nccc(Oc3ccc(NC(=O)c4cn(C)c(=O)n(-c5ccc(F)cc5)c4=O)cc3F)c2c2c1OCCO2 [Example 42, N-(3-fluoro-4-((5-(2-methoxyethoxy)-2,3-dihydro-[1,4]dioxino[2,3-f]quinolin-10-yl)oxy)phenyl)-3-(4-fluorophenyl)-1-methyl-2,4-dioxo-1,2,3,4-tetrahydropyrimidine-5-carboxamide]",≤ 50,50 to 500,< 50
"CC(C)n1cc(C(=O)Nc2ccc(Oc3ccnc4cc(OCCCN5CCC(C)(O)CC5)c5c(c34)OCCO5)c(F)c2)c(=O)n(-c2ccc(F)cc2)c1=O [Example 94, N-(3-fluoro-4-((5-(3-(4-methyl-4-hydroxypiperidin-1-yl)propoxy)-2,3-dihydro-[1,4]dioxino[2,3-f]quinolin-10-yl)oxy)phenyl)-3-(4-fluorophenyl)-1-isopropyl-2,4-dioxo-1,2,3,4-tetrahydropyrimidine-5-carboxamide]",≤ 50,500 to 5000,< 50
